# Source: patent US20100227313A1, “Methods and Compositions for Determining Altered Susceptibility of HIV-1 to Protease Inhibitor Treatment” (priority 2007, published 2010)
# Tested on: HIV-1
# Test: Resistance test vector (PHENOSENSE) phenotypic susceptibility assay, fold change in IC50, correlated with genotype (Fisher's Exact test, odds ratio)
# Format: cell-based, human immunodeficiency virus type 1
# Source text: See Petropoulos et al., 2000, Antimicrob. Agents Chemother. 44:920-928; U.S. Pat. Nos. 5,837,464 and 6,242,187. PHENOSENSE™ is a phenotypic assay that achieves the benefits of phenotypic testing and overcomes the drawbacks of previous assays.
# PHENOSENSE™ can obtain results with only one round of viral replication, thereby avoiding selection of subpopulations of virus that can occur during preparation of viral stocks required for assays that rely on fully infectious virus.
# A resistance test vector (“RTV”) can then be constructed by incorporating the amplified viral gene sequences into a replication defective viral vector by using any method known in the art of incorporating gene sequences into a vector. In one embodiment, restrictions enzymes and conventional cloning methods are used. See Sambrook et al., 2001, Molecular Cloning: A Laboratory Manual, Cold Spring Harbor Laboratory, 3rd ed., NY; and Ausubel et al., 1989, Current Protocols in Molecular Biology, Greene Publishing Associates and Wiley Interscience, NY. In a preferred embodiment, ApaI and PinAI restriction enzymes are used. Preferably, the replication defective viral vector is the indicator gene viral vector (“IGVV”). In a preferred embodiment, the viral vector contains a means for detecting replication of the RTV. Preferably, the viral vector contains a luciferase expression cassette.
# The assay can be performed by first co-transfecting host cells with RTV DNA and a plasmid that expresses the envelope proteins of another retrovirus, for example, amphotropic murine leukemia virus (MLV). Following transfection, viral particles can be harvested from the cell culture and used to infect fresh target cells in the presence of varying amounts of anti-viral drug(s). The completion of a single round of viral replication in the fresh target cells can be detected by the means for detecting replication contained in the vector. In a preferred embodiment, the completion of a single round of viral replication results in the production of luciferase. By monitoring the amount of, e.g., luciferase activity in the presence of the varying amounts of antiviral drug(s), a resistance curve can be constructed by plotting luciferase activity versus drug concentration. The susceptibility of an HIV, or population of HIV, can be determined by measuring the concentration of antiviral drug at which the luciferase activity detected is half-maximal. This number, the IC50, provides a standard and convenient measure of drug resistance.
# Patient derived segment(s) corresponding to the HIV protease and reverse transcriptase coding regions were amplified by the reverse transcription polymerase chain reaction method (RT PCR) using viral RNA isolated from viral particles present in the plasma or serum of HIV infected individuals as follows. Viral RNA was isolated from the plasma or serum using oligo-dT magnetic beads (Dynal Biotech, Oslo, Norway), followed by washing and elution of viral RNA. The RT PCR protocol was divided into two steps. A retroviral reverse transcriptase (e.g. Moloney MuLV reverse transcriptase (Roche Molecular Systems, Inc., Branchburg, N.J.; Invitrogen, Carlsbad, Calif.), or avian myeloblastosis virus (AMV) reverse transcriptase, (Boehringer Mannheim, Indianapolis, Ind.) was used to copy viral RNA into cDNA. The cDNA was then amplified using a thermostable DNA polymerase (e.g. Taq (Roche Molecular Systems, Inc., Branchburg, N.J.), Tth (Roche Molecular Systems, Inc., Branchburg, N.J.), PRIMEZYME™ (isolated from Thermus brockianus, Biometra, Gottingen, Germany)) or a combination of thermostable polymerases as described for the performance of “long PCR” (Barnes, W.M., 1994, Proc. Natl. Acad. Sci, USA 91, 2216 20) (e.g. Expand High Fidelity PCR System (Taq+Pwo), (Boehringer Mannheim. Indianapolis, Ind.); GENEAMP XL™ PCR kit (Tth+Vent), (Roche Molecular Systems, Inc., Branchburg, N.J.); or […] II®, Clontech, Palo Alto, Calif.)
compound,measurement,setting,value
"CC(C)CN(C[C@@H](O)[C@H](Cc1ccccc1)NC(=O)O[C@H]1CO[C@H]2OCC[C@H]21)S(=O)(=O)c1ccc(N)cc1 [DRV, darunavir]",Odds Ratio,"mutation A71I in PR, reduced susceptibility (FC>2)",1.74
same,Odds Ratio,"mutation A71L in PR, reduced susceptibility (FC>2)",16.53
same,Odds Ratio,"mutation A71T in PR, increased susceptibility (Table 3)",0.74
same,Odds Ratio,"mutation A431I in gag, reduced susceptibility (FC>2)",5.60
same,Odds Ratio,"mutation A431V in gag, reduced susceptibility (FC>2)",1.94
same,Odds Ratio,"mutation C67F in PR, reduced susceptibility (FC>2)",3.72
same,Odds Ratio,"mutation C95F in PR, reduced susceptibility (FC>2)",3.13
same,Odds Ratio,"mutation D30N in PR, increased susceptibility (Table 3)",0.20
same,Odds Ratio,"mutation D425E in gag, reduced susceptibility (FC>2)",1.49
same,Odds Ratio,"mutation E35N in PR, reduced susceptibility (FC>2)",2.90
same,Odds Ratio,"mutation E428D in gag, reduced susceptibility (FC>2)",2.41
same,Odds Ratio,"mutation E467K in gag, reduced susceptibility (FC>2)",2.41
same,Odds Ratio,"mutation E468K in gag, reduced susceptibility (FC>2)",2.24
same,Odds Ratio,"mutation F53L in PR, reduced susceptibility (FC>2)",2.30
same,Odds Ratio,"mutation F53Y in PR, reduced susceptibility (FC>2)",3.43
same,Odds Ratio,"mutation F463L in gag, reduced susceptibility (FC>2)",1.68
same,Odds Ratio,"mutation F463S in gag, reduced susceptibility (FC>2)",3.18
same,Odds Ratio,"mutation F463V in gag, reduced susceptibility (FC>2)",2.89
same,Odds Ratio,"mutation F465L in gag, reduced susceptibility (FC>2)",1.66
same,Odds Ratio,"mutation F465S in gag, reduced susceptibility (FC>2)",2.45
same,Odds Ratio,"mutation G16A in PR, reduced susceptibility (FC>2)",3.73
same,Odds Ratio,"mutation G73A in PR, reduced susceptibility (FC>2)",8.81
same,Odds Ratio,"mutation G73C in PR, reduced susceptibility (FC>2)",2.24
same,Odds Ratio,"mutation G73T in PR, reduced susceptibility (FC>2)",7.84
same,Odds Ratio,"mutation H69R in PR, reduced susceptibility (FC>2)",2.59
same,Odds Ratio,"mutation H441Q in gag, reduced susceptibility (FC>2)",1.99
same,Odds Ratio,"mutation H441Y in gag, increased susceptibility (Table 3)",0.59
same,Odds Ratio,"mutation I13V in PR, reduced susceptibility (FC>2)",1.71
same,Odds Ratio,"mutation I15V in PR, reduced susceptibility (FC>2)",1.53
same,Odds Ratio,"mutation I47V in PR, reduced susceptibility (FC>2)",13.64
same,Odds Ratio,"mutation I50L in PR, increased susceptibility (Table 3)",0.12
same,Odds Ratio,"mutation I54A in PR, reduced susceptibility (FC>2)",2.37
same,Odds Ratio,"mutation I54L in PR, reduced susceptibility (FC>2)",5.50
same,Odds Ratio,"mutation I54M in PR, reduced susceptibility (FC>2)",14.47
same,Odds Ratio,"mutation I64L in PR, increased susceptibility (Table 3)",0.62
same,Odds Ratio,"mutation I64V in PR, increased susceptibility (Table 3)",0.84
same,Odds Ratio,"mutation I66F in PR, reduced susceptibility (FC>2)",3.25
same,Odds Ratio,"mutation I66V in PR, reduced susceptibility (FC>2)",4.86
same,Odds Ratio,"mutation I72L in PR, reduced susceptibility (FC>2)",3.02
same,Odds Ratio,"mutation I84V in PR, reduced susceptibility (FC>2)",7.06
same,Odds Ratio,"mutation I85V in PR, reduced susceptibility (FC>2)",2.76
same,Odds Ratio,"mutation I93L in PR, increased susceptibility (Table 3)",0.88
same,Odds Ratio,"mutation I437V in gag, reduced susceptibility (FC>2)",1.95
same,Odds Ratio,"mutation K20R in PR, reduced susceptibility (FC>2)",1.90
same,Odds Ratio,"mutation K20T in PR, reduced susceptibility (FC>2)",1.54
same,Odds Ratio,"mutation K20V in PR, reduced susceptibility (FC>2)",3.40
same,Odds Ratio,"mutation K43R in PR, increased susceptibility (Table 3)",0.30
same,Odds Ratio,"mutation K43T in PR, reduced susceptibility (FC>2)",3.72
same,Odds Ratio,"mutation K45R in PR, increased susceptibility (Table 3)",0.35
same,Odds Ratio,"mutation K55N in PR, reduced susceptibility (FC>2)",10.28
same,Odds Ratio,"mutation K55R in PR, reduced susceptibility (FC>2)",2.70
same,Odds Ratio,"mutation L10F in PR, reduced susceptibility (FC>2)",2.59
same,Odds Ratio,"mutation L19P in PR, reduced susceptibility (FC>2)",7.16
same,Odds Ratio,"mutation L23I in PR, reduced susceptibility (FC>2)",2.10
same,Odds Ratio,"mutation L24F in PR, reduced susceptibility (FC>2)",8.57
same,Odds Ratio,"mutation L33F in PR, reduced susceptibility (FC>2)",6.78
same,Odds Ratio,"mutation L63A in PR, increased susceptibility (Table 3)",0.53
same,Odds Ratio,"mutation L63Q in PR, increased susceptibility (Table 3)",0.49
same,Odds Ratio,"mutation L63S in PR, increased susceptibility (Table 3)",0.54
same,Odds Ratio,"mutation L76V in PR, reduced susceptibility (FC>2)",11.18
same,Odds Ratio,"mutation L89I in PR, reduced susceptibility (FC>2)",2.16
same,Odds Ratio,"mutation L89M in PR, reduced susceptibility (FC>2)",1.51
same,Odds Ratio,"mutation L89V in PR, reduced susceptibility (FC>2)",44.56
same,Odds Ratio,"mutation L449V in gag, reduced susceptibility (FC>2)",4.73
same,Odds Ratio,"mutation L486S in gag, increased susceptibility (Table 3)",0.51
same,Odds Ratio,"mutation M36L in PR, reduced susceptibility (FC>2)",2.20
same,Odds Ratio,"mutation M46I in PR, reduced susceptibility (FC>2)",1.92
same,Odds Ratio,"mutation M46L in PR, reduced susceptibility (FC>2)",1.60
same,Odds Ratio,"mutation N88D in PR, increased susceptibility (Table 3)",0.34
same,Odds Ratio,"mutation N88S in PR, increased susceptibility (Table 3)",0.17
same,Odds Ratio,"mutation P79A in PR, reduced susceptibility (FC>2)",5.35
same,Odds Ratio,"mutation P79S in PR, reduced susceptibility (FC>2)",4.96
same,Odds Ratio,"mutation P453L in gag, reduced susceptibility (FC>2)",1.80
same,Odds Ratio,"mutation P453V in gag, reduced susceptibility (FC>2)",6.86
same,Odds Ratio,"mutation P459T in gag, reduced susceptibility (FC>2)",1.69
same,Odds Ratio,"mutation Q58E in PR, reduced susceptibility (FC>2)",2.41
same,Odds Ratio,"mutation Q61N in PR, reduced susceptibility (FC>2)",2.48
same,Odds Ratio,"mutation R452K in gag, reduced susceptibility (FC>2)",2.99
same,Odds Ratio,"mutation R452S in gag, reduced susceptibility (FC>2)",3.92
same,Odds Ratio,"mutation S451N in gag, increased susceptibility (Table 3)",0.68
same,Odds Ratio,"mutation S451T in gag, reduced susceptibility (FC>2)",1.78
same,Odds Ratio,"mutation S462N in gag, reduced susceptibility (FC>2)",2.29
same,Odds Ratio,"mutation S488A in gag, reduced susceptibility (FC>2)",2.02
same,Odds Ratio,"mutation S498L in gag, increased susceptibility (Table 3)",0.48
same,Odds Ratio,"mutation S499L in gag, increased susceptibility (Table 3)",0.56
same,Odds Ratio,"mutation T4A in PR, reduced susceptibility (FC>2)",10.65
same,Odds Ratio,"mutation T4S in PR, reduced susceptibility (FC>2)",2.80
same,Odds Ratio,"mutation T12P in PR, reduced susceptibility (FC>2)",1.84
same,Odds Ratio,"mutation V11I in PR, reduced susceptibility (FC>2)",12.85
same,Odds Ratio,"mutation V32I in PR, reduced susceptibility (FC>2)",18.66
same,Odds Ratio,"mutation V77I in PR, increased susceptibility (Table 3)",0.64
same,Odds Ratio,"mutation V82A in PR, reduced susceptibility (FC>2)",1.12
same,Odds Ratio,"mutation V82C in PR, reduced susceptibility (FC>2)",3.67
same,Odds Ratio,"mutation V82F in PR, reduced susceptibility (FC>2)",5.47
same,Odds Ratio,"mutation V82I in PR, reduced susceptibility (FC>2)",2.31
same,Odds Ratio,"mutation V82L in PR, reduced susceptibility (FC>2)",5.44
same,Odds Ratio,"mutation V82T in PR, reduced susceptibility (FC>2)",1.84
